These results are taken from PubChem BioAssay AID248 (DTP/NCI, 2004).

Toxic doses and inconclusive results are not listed.

The assay relates to L1210 leukemia ip in BDF1 mice, survival T/C. The assay is described as follows: NCI In Vivo Anticancer Drug Screen. Data for tumor model L1210 Leukemia (intraperitoneal) in B6D2F1 (BDF1) mice. The following applies: endpoint: mean survival time, higher = longer survival. In outline:
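Each compound was tested against a transplantable tumor grown in mice. The endpoint was survival, with treated animals benchmarked against vehicle controls as a simple ratio.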

[1] abbreviates: dose: 100.0 mg/kg/injection, schedule: Q01DX001 (ip), vehicle: saline with Tween-80.
[2] abbreviates: dose: 200.0 mg/kg/injection, schedule: Q01DX001 (ip), vehicle: saline with Tween-80.
[3] abbreviates: dose: 400.0 mg/kg/injection, schedule: Q01DX001 (ip), vehicle: saline with Tween-80.
Setting [4] is: dose: 100.0 mg/kg/injection, schedule: Q01DX009 (ip), vehicle: Klucel (hydroxypropylcellulose) (HPC).
Setting [5] is: dose: 200.0 mg/kg/injection, schedule: Q01DX009 (ip), vehicle: Klucel (hydroxypropylcellulose) (HPC).
The mark [6] stands for this setting: dose: 400.0 mg/kg/injection, schedule: Q01DX009 (ip), vehicle: Klucel (hydroxypropylcellulose) (HPC).
Where [7] appears, read: dose: 100.0 mg/kg/injection, schedule: Q01DX009 (ip), vehicle: saline with Tween-80.
Setting [8] is: dose: 100.0 mg/kg/injection, schedule: Q04DX003 (ip), vehicle: saline with Tween-80.
Where [9] appears, read: dose: 100.0 mg/kg/injection, schedule: Q04DX003 (ip), vehicle: Klucel (hydroxypropylcellulose) (HPC).
[10] abbreviates: dose: 200.0 mg/kg/injection, schedule: Q04DX003 (ip), vehicle: Klucel (hydroxypropylcellulose) (HPC).
Setting [11] is: dose: 400.0 mg/kg/injection, schedule: Q04DX003 (ip), vehicle: Klucel (hydroxypropylcellulose) (HPC).
Setting [12] is: dose: 200.0 mg/kg/injection, schedule: Q01DX009 (ip), vehicle: saline with Tween-80.
The mark [13] stands for this setting: dose: 400.0 mg/kg/injection, schedule: Q01DX009 (ip), vehicle: saline with Tween-80.

`OC1(c2ccccc2)C2=CC(c3ccccc3)=C(c3ccccc3)CC2C(c2ccccc2)C1c1ccccc1` (stereo not given): the T/C by setting is: under setting [1], 100 % of control; under setting [2], 91 % of control; under setting [3], 96 % of control.
For `O=C(O)CC1CCCCC1NC(=O)c1ccccc1` (stereo not given), the T/C reads like this: under setting [1], 100 % of control; under setting [2], 94 % of control; under setting [3], 95 % of control.
Consider `O=NN(CCCl)C(=O)NC1CCC(CC2CCC(NC(=O)N(CCCl)N=O)CC2)CC1` (stereo not given), for which the T/C (dose: 6.0 mg/kg/injection, schedule: Q01DX001 (ip), vehicle: gum acacia) is 105 % of control; the T/C (dose: 12.0 mg/kg/injection, schedule: Q01DX001 (ip), vehicle: gum acacia) was 151 % of control; the T/C (dose: 46.0 mg/kg/injection, schedule: Q01DX001 (ip), vehicle: gum acacia) was 184 % of control; the T/C (dose: 93.0 mg/kg/injection, schedule: Q01DX001 (ip), vehicle: gum acacia) was 298 % of control; the T/C (dose: 187.0 mg/kg/injection, schedule: Q01DX001 (ip), vehicle: gum acacia) is 315 % of control; the T/C (dose: 250.0 mg/kg/injection, schedule: Q01DX001 (ip), vehicle: gum acacia) is 318 % of control. For the setting “dose: 375.0 mg/kg/injection, schedule: Q01DX001 (ip), vehicle: gum acacia”, the T/C was 245 % of control.
Turning to `CCOC(=O)NC(=O)C1C2CC3OC(=O)C1C3C2` (stereo not given), the T/C was 102 % of control (dose: 100.0 mg/kg/injection, schedule: Q04DX003 (ip), vehicle: saline); 102 % of control (dose: 200.0 mg/kg/injection, schedule: Q04DX003 (ip), vehicle: saline); 98 % of control (dose: 400.0 mg/kg/injection, schedule: Q04DX003 (ip), vehicle: saline).
As to `O=C1OC(c2ccc([N+](=O)[O-])cc2)=N/C1=C\c1cc(Br)ccc1O`, the T/C under setting [4] was 91 % of control, the T/C under setting [5] was 96 % of control and the T/C under setting [6] is 93 % of control.
For the compound `CC(NCCN1CC1)C1CC1` (stereo not given), the T/C (dose: 20.0 mg/kg/injection, schedule: Q01DX009 (ip), vehicle: saline) was 120 % of control.
Regarding `COc1ccc(/C=N\NC(=O)N/N=C/c2ccc(OC)c(OC)c2)cc1OC`, the T/C (dose: 50.0 mg/kg/injection, schedule: Q01DX001 (ip), vehicle: Klucel (hydroxypropylcellulose) (HPC)) was 90 % of control and the T/C (dose: 100.0 mg/kg/injection, schedule: Q01DX001 (ip), vehicle: Klucel (hydroxypropylcellulose) (HPC)) is 95 % of control.
In the case of `CSc1ccc(NC(=O)CCl)cc1`, the T/C reads like this: (dose: 25.0 mg/kg/injection, schedule: Q01DX009 (ip), vehicle: saline with Tween-80) 97 % of control; (dose: 25.0 mg/kg/injection, schedule: Q04DX003 (ip), vehicle: saline with Tween-80) 97 % of control; (dose: 50.0 mg/kg/injection, schedule: Q01DX009 (ip), vehicle: saline with Tween-80) 108 % of control; (dose: 50.0 mg/kg/injection, schedule: Q04DX003 (ip), vehicle: saline with Tween-80) 95 % of control; under setting [7], 100 % of control; under setting [8], 101 % of control.
For the compound `CCN(CC)CCOC(=O)c1ccc(OCCOc2ccc(C(C)(C)CC(C)(C)C)cc2)c([N+](=O)[O-])c1`, the T/C (dose: 100.0 mg/kg/injection, schedule: Q04DX003 (ip), vehicle: saline sonified) was 96 % of control; the T/C (dose: 200.0 mg/kg/injection, schedule: Q04DX003 (ip), vehicle: saline sonified) is 87 % of control; the T/C (dose: 400.0 mg/kg/injection, schedule: Q04DX003 (ip), vehicle: saline sonified) is 98 % of control.
As for `O=C(Nc1ccc(C2=NCCN2)cc1)c1cccc(C(=O)Nc2ccc(C3=NCCN3)cc2)c1[N+](=O)[O-]`, the T/C runs as follows: (dose: 1.88 mg/kg/injection, schedule: Q01DX Z (ip), vehicle: saline) 100 % of control; (dose: 3.75 mg/kg/injection, schedule: Q01DX Z (ip), vehicle: saline) 100 % of control; (dose: 7.5 mg/kg/injection, schedule: Q01DX Z (ip), vehicle: saline) 100 % of control; (dose: 15.0 mg/kg/injection, schedule: Q01DX Z (ip), vehicle: saline) 105 % of control; (dose: 30.0 mg/kg/injection, schedule: Q01DX Z (ip), vehicle: carboxymethylcellulose (CMC)) 198 % of control; (dose: 30.0 mg/kg/injection, schedule: Q01DX Z (oral), vehicle: saline) 103 % of control. Also, the T/C is, setting by setting: (dose: 60.0 mg/kg/injection, schedule: Q01DX Z (ip), vehicle: carboxymethylcellulose (CMC)) 117 % of control; (dose: 60.0 mg/kg/injection, schedule: Q01DX Z (oral), vehicle: saline) 105 % of control; (dose: 120.0 mg/kg/injection, schedule: Q01DX Z (oral), vehicle: saline) 107 % of control; (dose: 240.0 mg/kg/injection, schedule: Q01DX Z (oral), vehicle: saline) 102 % of control.
Turning to `CCc1cc2oc(C)c(C)c2c(N=Nc2ccccc2OC)c1O`, the T/C was 105 % of control (dose: 100.0 mg/kg/injection, schedule: Q04DX002 (ip), vehicle: Klucel (hydroxypropylcellulose) (HPC)); 102 % of control (dose: 200.0 mg/kg/injection, schedule: Q04DX002 (ip), vehicle: Klucel (hydroxypropylcellulose) (HPC)); 102 % of control (dose: 400.0 mg/kg/injection, schedule: Q04DX002 (ip), vehicle: Klucel (hydroxypropylcellulose) (HPC)).
Take `CCOC(=O)C(Cc1ccc(O)cc1)NP(=O)(OCCCl)OCCCl` (stereo not given): the T/C under setting [4] is 100 % of control; the T/C under setting [9] is 95 % of control; the T/C under setting [5] was 98 % of control; the T/C under setting [10] is 90 % of control; the T/C under setting [6] is 100 % of control; the T/C under setting [11] is 94 % of control.
For `NC(N)=NCC(=O)O`, the T/C runs as follows: (dose: 75.0 mg/kg/injection, schedule: Q01DX001 (ip), vehicle: saline with Tween-80) 105 % of control; (dose: 150.0 mg/kg/injection, schedule: Q01DX001 (ip), vehicle: saline with Tween-80) 100 % of control; (dose: 300.0 mg/kg/injection, schedule: Q01DX001 (ip), vehicle: saline with Tween-80) 102 % of control.
Take `O=C(/C=C/c1ccco1)c1ccc([N+](=O)[O-])cc1`: the T/C was 106 % of control (dose: 25.0 mg/kg/injection, schedule: Q04DX003 (ip), vehicle: Klucel (hydroxypropylcellulose) (HPC)); 104 % of control (dose: 50.0 mg/kg/injection, schedule: Q04DX003 (ip), vehicle: Klucel (hydroxypropylcellulose) (HPC)); 97 % of control under setting [9].
In the case of `CSCSCC(CO)NS(=O)(=O)c1ccc(C)cc1` (stereo not given), the T/C runs as follows: under setting [7], 107 % of control; under setting [8], 103 % of control; under setting [12], 109 % of control; (dose: 200.0 mg/kg/injection, schedule: Q04DX003 (ip), vehicle: saline with Tween-80) 97 % of control; under setting [13], 98 % of control; (dose: 400.0 mg/kg/injection, schedule: Q04DX003 (ip), vehicle: saline with Tween-80) 102 % of control.
In the case of `Cc1ccc(C)c(NC(=O)Oc2ccccc2F)c1`, the T/C under setting [4] is 101 % of control; the T/C under setting [9] was 98 % of control; the T/C under setting [5] is 91 % of control; the T/C under setting [10] is 113 % of control; the T/C under setting [11] is 101 % of control.
For the compound `Cc1cccc(Cl)c1NC(=O)Nc1cccc(C(=O)O)c1`, the T/C is, setting by setting: (dose: 25.0 mg/kg/injection, schedule: Q01DX009 (ip), vehicle: Klucel (hydroxypropylcellulose) (HPC)) 100 % of control; (dose: 50.0 mg/kg/injection, schedule: Q01DX009 (ip), vehicle: Klucel (hydroxypropylcellulose) (HPC)) 87 % of control; under setting [4], 90 % of control; under setting [5], 86 % of control; under setting [6], 91 % of control.
For `Cc1ccccc1OS(=O)(=O)c1cccc([N+](=O)[O-])c1`, the T/C runs as follows: under setting [7], 93 % of control; under setting [12], 92 % of control; under setting [13], 90 % of control.
